Results: PubChem BioAssay (NCI)
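The concentration for 50% growth inhibition is given as GI50. Definition used: TGI = concentration required for complete inhibition of growth.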

What was measured:
Assay in all cases: NCI-60 cell line screen, 384-well format
[1] = system: UACC-257 melanoma
[2] = system: SK-MEL-5 melanoma
[3] = system: SW-620 colon
[4] = system: HOP-62 NSCLC
[5] = system: SK-MEL-28 melanoma
[6] = system: HL-60(TB) leukemia
[7] = system: MCF7 breast
[8] = system: OVCAR-5 ovarian
[9] = system: SK-OV-3 ovarian
[10] = system: UO-31 renal
[11] = system: MDA-MB-231 breast
[12] = system: NCI-H460 NSCLC
[13] = system: ACHN renal
[14] = system: MOLT-4 leukemia
[15] = system: RPMI-8226 leukemia
[16] = system: SNB-19 CNS
[17] = system: LOX IMVI melanoma
[18] = system: BT-549 breast
[19] = system: SN12C renal
[20] = system: A498 renal
[21] = system: UACC-62 melanoma
[22] = system: HS 578T breast
[23] = system: NCI/ADR-RES ovarian
[24] = system: NCI-H522 lung
[25] = system: KM12 colon
[26] = system: SR leukemia
[27] = system: HOP-92 NSCLC
[28] = system: OVCAR-3 ovarian
[29] = system: DU-145 prostate
[30] = system: SF-268 CNS
[31] = system: CAKI-1 renal
[32] = system: SF-295 CNS
[33] = system: IGROV1 ovarian
[34] = system: NCI-H226 lung
[35] = system: M14 melanoma
[36] = system: HCC-2998 colon
[37] = system: U251 glioblastoma
[38] = system: EKVX NSCLC
[39] = system: CCRF-CEM leukemia
[40] = system: 786-0 renal
[41] = system: MDA-MB-468 breast
[42] = system: T-47D breast
[43] = system: NCI-H322M lung
[44] = system: OVCAR-8 ovarian
[45] = system: SNB-75 CNS
[46] = system: HCT-15 colon
[47] = system: MALME-3M melanoma
[48] = system: OVCAR-4 ovarian
[49] = system: K-562 leukemia
[50] = system: SF-539 CNS
[51] = system: COLO 205 colon
[52] = system: HT29 colon
[53] = system: RXF 393 renal
[54] = system: A549 NSCLC
[55] = system: NCI-H23 lung

NS(=O)(=O)OC[C@@H]1C[C@@H](n2ccc3c(NC4CCc5ccccc54)ncnc32)C[C@@H]1O (stereo not given in full)
GI50 [1]: 162 nM
TGI [1]: 10500 nM
GI50 [2]: 34.3 nM
TGI [2]: 223 nM
GI50 [3]: 602 nM
TGI [3]: 15700 nM
GI50 [4]: 114 nM
TGI [4]: 372 nM
GI50 [5]: 163 nM
TGI [5]: 1880 nM
GI50 [6]: 10.9 nM
TGI [6]: 26.6 nM
GI50 [7]: 32.9 nM
TGI [7]: 424 nM
GI50 [8]: 554 nM
TGI [8]: 13600 nM
GI50 [9]: 206 nM
TGI [9]: 703 nM
GI50 [10]: 3180 nM
TGI [10]: > 100000 nM
GI50 [11]: 216 nM
TGI [11]: 2730 nM
GI50 [12]: 274 nM
TGI [12]: 958 nM
GI50 [13]: 227 nM
TGI [13]: 735 nM
GI50 [14]: 29 nM
TGI [14]: 117 nM
GI50 [15]: 126 nM
TGI [15]: 1560 nM
GI50 [16]: 372 nM
TGI [16]: 28500 nM
GI50 [17]: 39.9 nM
TGI [17]: 168 nM
GI50 [18]: 56.7 nM
TGI [18]: 491 nM
GI50 [19]: 370 nM
TGI [19]: 4360 nM
GI50 [20]: 43.8 nM
TGI [20]: 10400 nM
GI50 [21]: 20.2 nM
TGI [21]: 137 nM
GI50 [22]: 186 nM
TGI [22]: 13200 nM
GI50 [23]: 1520 nM
TGI [23]: 11300 nM
GI50 [24]: 42.8 nM
TGI [24]: 844 nM
GI50 [25]: 255 nM
TGI [25]: 4950 nM
GI50 [26]: 24.3 nM
TGI [26]: 79.1 nM
GI50 [27]: 439 nM
TGI [27]: 18800 nM
GI50 [28]: 43.2 nM
TGI [28]: 3550 nM
GI50 [29]: 68.6 nM
TGI [29]: 14000 nM
GI50 [30]: 238 nM
TGI [30]: 4970 nM
GI50 [31]: 76.4 nM
TGI [31]: > 100000 nM
GI50 [32]: 176 nM
TGI [32]: 333 nM
GI50 [33]: 257 nM
TGI [33]: 4400 nM
GI50 [34]: 112 nM
TGI [34]: 804 nM
GI50 [35]: 151 nM
TGI [35]: 1050 nM
GI50 [36]: 434 nM
TGI [36]: 5530 nM
GI50 [37]: 254 nM
TGI [37]: 12500 nM
GI50 [38]: 2430 nM
TGI [38]: > 100000 nM
GI50 [39]: 24.6 nM
TGI [39]: 126 nM
GI50 [40]: 226 nM
TGI [40]: 1130 nM
GI50 [41]: 13.5 nM
TGI [41]: 64.9 nM
GI50 [42]: 142 nM
TGI [42]: 15800 nM
GI50 [43]: 333 nM
TGI [43]: 11100 nM
GI50 [44]: 119 nM
TGI [44]: 316 nM
GI50 [45]: 178 nM
TGI [45]: 627 nM
GI50 [46]: 277 nM
TGI [46]: 11200 nM
GI50 [47]: 202 nM
TGI [47]: 766 nM
GI50 [48]: 210 nM
TGI [48]: 799 nM
GI50 [49]: 62.7 nM
TGI [49]: 10900 nM
GI50 [50]: 85.3 nM
TGI [50]: 260 nM
GI50 [51]: 40.6 nM
TGI [51]: 292 nM
GI50 [52]: 256 nM
TGI [52]: 11600 nM
GI50 [53]: 60.1 nM
TGI [53]: 304 nM
GI50 [54]: 405 nM
TGI [54]: 13800 nM
GI50 [55]: 212 nM
TGI [55]: 1380 nM
